What was measured:
HIV-1NL4-3 [1] = test: HIV-1 infectivity assay in TZM-bl cells (F-Luc under HIV-1 LTR); format: cell-based; settings: Human immunodeficiency virus 1, NL43, TZM-bl; for inhibition at 3 µM: 48 h, read-out: Inhibition of HIV-1 Infectivity (%), TZM-bl cells, 3 μM, HIV-1 NL4-3 at MOI of 1, 48 h; for IC50: read-out: IC50 (inhibition of HIV-1 infection)
Text: TZM-bl cells (also referred as JC53BL-13) expressing human CD4, CXCR4, and CCR5 in order to facilitate HIV-1 infection, which contain the firefly luciferase (F-Luc) gene under the control of HIV-1 long terminal repeat (LTR) promoter was used to determine inhibitory effect of the compounds on HIV-1 infection, as described previously with minor modifications. […] Without replacement of a culture medium, the cells were then infected with the HIV-1NL4-3 strain at a multiplicity of infection (MOI) of 1 to determine the exact inhibitory effect of compounds on a single round infection. After 48 h, the inhibitory effect of the compounds was determined using a Bright Glo luciferase assay kit (Promega). The infectivity data are presented as a percentage relative to the DMSO control (vehicle). The inhibitory effects of the compounds on viral replication were determined with some minor modifications, as described previously. […] PBMCs were pre-activated with phytohemagglutinin M (PHA-M) for 3 days. The pre-activated 4 × 10^5 of PBMCs were washed with fresh media to remove excess PHA-M and then infected with HIV-1NL4-3 or HIV-1AD8 as that of A3.01 infection.

Tat and cyclin T1 = Tat and cyclin T1 (Human immunodeficiency virus type 1 group M subtype B, UniProt P04608); test: Interaction between Tat and cyclin T1; settings: manuscript in preparation [26]
HIV-1NL4-3 [2] = test: HIV-1 replication assay (p24 […]) in PBMCs, CXCR4 tropic strain; format: cell-based; settings: HIV-1NL4-3 MOI 0.1, 1.5 μM, 72 h
Experimental: (§1) TZM-bl cells (also referred as JC53BL-13) expressing human CD4, CXCR4, and CCR5 in order to facilitate HIV-1 infection, which contain the firefly luciferase (F-Luc) gene under the control of HIV-1 long terminal repeat (LTR) promoter was used to determine inhibitory effect of the compounds on HIV-1 infection, as described previously with minor modifications. In brief, 1 × 10^4 cells were cultured in 96-well plates for 24 h and then treated with compounds at a final concentration of 3 μM (Figure 1A) or with 1:2 serially diluted compounds at concentrations ranging from 0 to 25 μM (dose-response assay; Figure 1B and Table 2). Without replacement of a culture medium, the cells were then infected with the HIV-1NL4-3 strain at a multiplicity of infection (MOI) of 1 to determine the exact inhibitory effect of compounds on a single round infection. After 48 h, the inhibitory effect of the compounds was determined using a Bright Glo luciferase assay kit (Promega). The infectivity data are presented as a percentage relative to the DMSO control (vehicle). The inhibitory effects of the compounds on viral replication were determined with some minor modifications, as described previously. In brief, 5 × 10^4 cells/ well of A3.01 cells were infected with HIV-1NL4-3 at an MOI of 0.1 with the spinoculation at 300 g for 2 h at 25 °C. PBMCs were pre-activated with phytohemagglutinin M (PHA-M) for 3 days. The pre-activated 4 × 10^5 of PBMCs were washed with fresh media to remove excess PHA-M and then infected with HIV-1NL4-3 or HIV-1AD8 as that of A3.01 infection. After infection, the infectious media were replaced with fresh media (supplemented with international 10 units (IU)/mL of IL-2 for PBMCs containing 1.5 μM of compounds. At 72 h after infection, the inhibitory effect of the compounds on viral replication was determined by measuring the amount of p24, an HIV capsid protein, using an HIV-1 p24 […]™ kit (PerkinElmer, Waltham, MA, USA). Cell viability was determined by using the resazurin-based PrestoBlue™ cell viability reagent (Thermo Fisher Scientific, Waltham, MA, USA) according to the manufacturer’s protocols.

HIV-1NL4-3 [3] = test: HIV-1 replication assay (p24 […]) in A3.01 T cell line; format: cell-based; settings: A3.01 cells, HIV-1NL4-3 MOI 0.1, 1.5 μM, 72 h
Experimental: as §1

[4] = system: Tat-mediated HIV-1 transcription; test: microbe, parasite or virus in culture; format: cell-based; settings: for IC50: Human immunodeficiency virus 1, 24 h, read-out: IC50 (inhibition of Tat-mediated HIV-1 transcription)
Experimental: (§2) bl-DTR (TZM-bl-derived dual Tat reporter) cells derived from TZM-bl cells by insertion of two doxycycline-inducible lentiviral vector-expressing flag-tagged tat and Renilla-luciferase (R-Luc) genes were used to determine simultaneously both activities of Tat-mediated HIV-1 transcription and general cellular transcription, as described previously. Determination of the inhibitory effect of the compounds on Tat-mediated transcription was performed as described previously. In brief, 1 × 10^4 of bl-DTR cells cultured in 96-well plates were treated with compounds at a final concentration of 3 μM (Figure 3C) or with 1:2 serially diluted compounds at concentrations ranging from 0 to 25 μM (Figure 4 and Table 3). Subsequently, doxycycline was treated at a final concentration of 50 ng/mL to induce Tat-mediated F-Luc and R-Luc. At 24 h after treatment, the activities of F-Luc and R-Luc were determined by using a Dual-Glo™ luciferase assay system (Promega, Madison, WI, USA) according to the manufacturer’s protocols. The data are presented as a percentage relative to the DMSO control (vehicle) in the presence of doxycycline, and the experiment was performed in triplicate.

HIV-1Ad8 = test: HIV-1 replication assay (p24 […]) in PBMCs, CCR5 tropic strain; format: cell-based; settings: CCR5 tropic HIV-1Ad8 MOI 0.1, 1.5 μM, 72 h
Experimental: TZM-bl cells (also referred as JC53BL-13) expressing human CD4, CXCR4, and CCR5 in order to facilitate HIV-1 infection, which contain the firefly luciferase (F-Luc) gene under the control of HIV-1 long terminal repeat (LTR) promoter was used to determine inhibitory effect of the compounds on HIV-1 infection, as described previously with minor modifications. In brief, 1 × 10^4 cells were cultured in 96-well plates for 24 h and then treated with compounds at a final concentration of 3 μM (Figure 1A) or with 1:2 serially diluted compounds at concentrations ranging from 0 to 25 μM (dose-response assay; Figure 1B and Table 2). Without replacement of a culture medium, the cells were then infected with the HIV-1NL4-3 strain at a multiplicity of infection (MOI) of 1 to determine the exact inhibitory effect of compounds on a single round infection. After 48 h, the inhibitory effect of the compounds was determined using a Bright Glo luciferase assay kit (Promega). The infectivity data are presented as a percentage relative to the DMSO control (vehicle). The inhibitory effects of the compounds on viral replication were determined with some minor modifications, as described previously. In brief, 5 × 10^4 cells/ well of A3.01 cells were infected with HIV-1NL4-3 at an MOI of 0.1 with the spinoculation at 300 g for 2 h at 25 °C. PBMCs were pre-activated with phytohemagglutinin M (PHA-M) for 3 days. […]

Tat = test: Nuclear localization of Tat; format: cell-based, HIV-1; settings: manuscript in preparation [26]
[5] = Cell viability (resazurin-based PrestoBlue) in parallel with infectivity assay; settings: human, TZM-bl cells; for viability at 48 h, 3 µM: with infection of HIV-1 NL4-3 at MOI of 1; for CC50 at 48 h: serial dilution starting from 100 μM, read-out: CC50 (concentration that reduces cell viability by 50%)
[6] = system: general cellular transcription; test: R-Luc activity in bl-DTR cells (general cellular transcription); format: cell-based; settings: high dosages (12.5 μM and 25 μM)
Experimental: as §2

Tat protein = test: Cellular expression level of Tat protein; format: cell-based, HIV-1; settings: manuscript in preparation [26]
Tat with TAR RNA = Tat with TAR RNA (Human immunodeficiency virus type 1 group M subtype B, UniProt P04608); test: Association of Tat with TAR RNA; set-up: species or system HIV-1; settings: manuscript in preparation [26]
TZM-bl cells = test: Cell viability (resazurin-based PrestoBlue) in parallel with infectivity assay; settings: 3 μM, with infection of HIV-1 NL4-3 at MOI of 1
[7] = molecular target: HIV-1 reverse transcriptase (RTase) (Human immunodeficiency virus type 1 group M subtype B, UniProt P12497); settings: A3.01 cells, 10 μM, HIV-1NL4-3, 16 h after infection
Text: (forward) and 5′-[…] (reverse). […] (forward) and 5′-[…] (reverse).

Chain of Tat and cyclin T1 (P04608 whole entry): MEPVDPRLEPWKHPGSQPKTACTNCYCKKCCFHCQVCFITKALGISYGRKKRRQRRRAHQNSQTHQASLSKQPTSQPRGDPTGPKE
Chain of Tat with TAR RNA (P04608 whole entry): as above

Compound	inhibition at 3 µM (HIV-1NL4-3 [1]) [%]	IC50 (HIV-1NL4-3 [1]) [nM]	Inhibition of interaction between Tat and cyclin T1 (Tat and cyclin T1)	Inhibitory effect on viral replication (p24) (HIV-1NL4-3 [2])	Inhibitory effect on viral replication (p24) (HIV-1NL4-3 [3])	IC50 [4] [nM]	Inhibitory effect on viral replication (p24) (HIV-1Ad8)	Inhibition of nuclear localization of Tat (Tat)	melting point [°C]	viability at 48 h, 3 µM [5] [%]	CC50 at 48 h [5] [nM]	R-Luc activity [6]	Inhibition of cellular expression level of Tat protein (Tat protein)	Inhibition of association of Tat with TAR RNA (Tat with TAR RNA)	Concentration of complete inhibition of Tat-induced transcriptional activity ([4]; bl-DTR cells, concentration response)	Cell Viability (%) (TZM-bl cells)	Inhibition of RTase activity (level of HIV-1 RT product) [7]
COC(=O)C1(CC=C(Cl)Cl)Nc2cc(C)cc(C)c2C1=O (centres unmarked) [Compound 6g, Methyl 2-(3,3-dichloroallyl)-4,6-dimethyl-3-oxindole-2-carboxylate]	85.4 ± 1.44	1280 ± 959	did not inhibit	half inhibition	half inhibition	2850 ± 630	inhibited replication	did not inhibit	> 300	87.9 ± 0.82	43600 ± 10500	decrease in R-Luc activity	did not inhibit	did not inhibit	–	–	–
COC(=O)C1(C/C=C/Cl)Nc2cc(C)cc(C)c2C1=O (centres unmarked) [Compound 6f, Methyl (E)-2-(3-chloroallyl)-4,6-dimethyl-3-oxindole-2-carboxylate]	91.9 ± 1.78	458 ± 22.7	did not inhibit	near-complete abrogation	near-complete abrogation	1200 ± 40	inhibited replication	did not inhibit	> 300	93 ± 5.39	51000 ± 4440	–	did not inhibit	did not inhibit	approximately 6 μM	without cytotoxicity	–
O=C1Nc2ccc(Cl)cc2[C@@](C#CC2CC2)(C(F)(F)F)O1 [EFV, efavirenz, reference compound]	–	< 50	–	–	–	–	–	–	–	–	34200 ± 590	–	–	–	–	–	inhibited
